Experimental data from patent publication US7105725B2, “Pathogen resistant transgenic plants expressing CEMA or CEMA-related peptides” (University of Victoria Innovation and Development …, priority 1999, dated 2006).

Key:
E. coli = assay: anti-bacterial assay (colony count after 4 h with serially diluted peptide); type: cell-based, Escherichia coli DH5α
Method: The antibacterial activity of a given CEMA and/or CEMA-related peptide can be assessed conveniently by determining the ability of the peptide to inhibit the growth of a pectinolytic bacterial strain such as Erwinia carotovora or even Escherichia coli DH5α. The activity of a given peptide is determined by serially diluting the peptide in Luria-Bertaini (LB) medium and 100-μL aliquots of the resulting titers into wells of a 96-well microtiter plate. A fresh bacterial culture (˜0.3 A550) is then grown on LB medium (1% w/v tryptone and 0.5% w/v yeast extract) and diluted to 10^−2 in LB to represent approximately 10^4–10^5 colony forming units (CFU)mL^−1. 10 μL of the bacterial culture are then inoculated into each well containing the peptide and the samples are incubated at 37° C. for 4 hours. The well contents are then diluted in LB, plated on LB agar, and incubated overnight at an appropriate temperature. […] The colonies are counted, and the antibacterial activity of the peptide under test is determined by comparison to the control plate.
The CEMA or CEMA-related peptide is determined to have biological activity if, under the conditions of this assay, the peptide is capable of inhibiting bacterial growth by at least 10% (compared to the control) at a concentration of 7 μg per mL (i.e., at this concentration, the number of bacterial colonies is no more than 90% that of the control plate).

[1] = system: susceptible microorganisms; conditions: cited from earlier work

Substance	concentration that kills 50% of bacterial cells (E. coli) [µg/mL]	antimicrobial activity [1]
KWKLFKKIGIGAVLKVLTTGLPALKLTK [CEMA]	4.5	
mellitin		potent antimicrobial activity
